Literature values, collected in patent publication US20190209686A1, “PULSE PHOTODYNAMIC TREATMENT OF ACNE” (GALDERMA RESEARCH & DEVELOPMENT, priority 2013, published 2019).
Like-named read-outs stand apart in the source and are kept apart here.

What was measured:
acne [1] = conditions: 20%, 3 hours, 150 J/cm2 broad band light
acne [2] = conditions: cream 16% wt., 3 hours, non-coherent red light

Row | Structure (SMILES) | efficacy of PDT in acne (acne [1]) | side effects after PDT (acne [1]) | side effects of PDT reported by subjects (acne [2]) | efficacy of PDT in acne (acne [2]; repeated 2 weeks later)
1 | NCC(=O)CCC(=O)O [ALA acid, 5-amino-4-oxo-pentanoic acid] | effective for the treatment of acne | erythema, hyperpigmentation and exfoliation were often seen after PDT treatment | – | –
2 | COC(=O)CCC(=O)CN [methyl ALA ester, 5-ALA methyl ester] | – | – | caused pain and induced severe inflammation | effective in the treatment of acne
